Assay results from PubChem BioAssay (NCI).
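48-hour exposure; five concentrations; linearly interpolated endpoints. At the TGI there is no net growth.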

What was measured:
Assay in all cases: growth of human tumour cells (NCI), 48 h
[1] = system: OVCAR-4 ovarian
[2] = system: CAKI-1 renal
[3] = system: EKVX NSCLC
[4] = system: T-47D breast
[5] = system: NCI-H226 lung
[6] = system: HOP-62 NSCLC
[7] = system: XF 498 CNS
[8] = system: SN12C renal
[9] = system: HS 578T breast
[10] = system: A549 NSCLC
[11] = system: U251 CNS
[12] = system: LXFL 529 NSCLC
[13] = system: HOP-92 NSCLC
[14] = system: NCI-H460 lung
[15] = system: PC-3 prostate
[16] = system: NCI-H522 lung
[17] = system: SK-OV-3 ovarian
[18] = system: UACC-257 melanoma
[19] = system: SK-MEL-5 melanoma
[20] = system: COLO 205 colon
[21] = system: MALME-3M melanoma
[22] = system: SR leukemia
[23] = system: OVCAR-5 ovarian
[24] = system: HT29 colon
[25] = system: DLD-1 colon
[26] = system: NCI/ADR-RES ovarian
[27] = system: MCF7 breast
[28] = system: SNB-75 CNS
[29] = system: SNB-19 CNS
[30] = system: UO-31 renal
[31] = system: MDA-N
[32] = system: HL-60(TB) leukemia
[33] = system: RXF 393 renal
[34] = system: SK-MEL-28 melanoma
[35] = system: KM20L2 colon
[36] = system: IGROV1 ovarian
[37] = system: LOX IMVI melanoma
[38] = system: HCC-2998 colon
[39] = system: ACHN renal
[40] = system: OVCAR-3 ovarian
[41] = system: KM12 colon
[42] = system: SF-539 CNS
[43] = system: SF-295 CNS
[44] = system: DMS 273 small cell lung
[45] = system: SK-MEL-2 melanoma
[46] = system: NCI-H23 lung
[47] = system: HCT-15 colon
[48] = system: OVCAR-8 ovarian
[49] = system: MDA-MB-435
[50] = system: HOP-18 NSCLC
[51] = system: DMS 114 small cell lung
[52] = system: TK-10 renal
[53] = system: UACC-62 melanoma
[54] = system: HCT-116 colon
[55] = system: M19-MEL melanoma
[56] = system: MDA-MB-231 breast
[57] = system: DU-145 prostate
[58] = system: M14 melanoma
[59] = system: K-562 leukemia
[60] = system: SF-268 CNS
[61] = system: 786-0 renal
[62] = system: MOLT-4 leukemia
[63] = system: SW-620 colon
[64] = system: A498 renal

In the case of `O=Cc1cc2c(s1)C(=O)c1sccc1C2=O`, the TGI [1] is reported as 599 nM, the TGI [2] is reported as 3150 nM and the TGI [3] is reported as 3180 nM. For the same molecule, the TGI [4] was 4380 nM, the TGI [5] was 3530 nM and the TGI [6] was 3270 nM. For the same molecule, the TGI [7] was 2540 nM, the TGI [8] was 688 nM and the TGI [9] was 427 nM. The TGI [10] was 1560 nM, the TGI [11] was 748 nM and the TGI [12] was 380 nM. For the same molecule, the TGI [13] was 2820 nM, the TGI [14] was 2690 nM and the TGI [15] was 6290 nM. The TGI [16] was 2020 nM, the TGI [17] was 5480 nM and the TGI [18] was 657 nM. The TGI [19] was 255 nM, the TGI [20] was 5150 nM and the TGI [21] was 664 nM. The TGI [22] was 5450 nM, the TGI [23] was 2000 nM and the TGI [24] was 3690 nM. The TGI [25] was 1070 nM, the TGI [26] was 409 nM and the TGI [27] was 1330 nM. It also gave a TGI [28] of 338 nM, a TGI [29] of 668 nM and a TGI [30] of 861 nM. For the same molecule, the TGI [31] was 93.2 nM, the TGI [32] was 5410 nM and the TGI [33] was 663 nM. It also gave a TGI [34] of 334 nM, a TGI [35] of 4160 nM and a TGI [36] of 2900 nM. For the same molecule, the TGI [37] was 155 nM, the TGI [38] was 3100 nM and the TGI [39] was 1770 nM. The TGI [40] was 463 nM, the TGI [41] was 7880 nM and the TGI [42] was 399 nM. It also gave a TGI [43] of 314 nM, a TGI [44] of 308 nM and a TGI [45] of 370 nM. The TGI [46] was 441 nM, the TGI [47] was 715 nM and the TGI [48] was 771 nM. For the same molecule, the TGI [49] was 33.4 nM, the TGI [50] was 322 nM and the TGI [51] was 372 nM. For the same molecule, the TGI [52] was 4140 nM, the TGI [53] was 532 nM and the TGI [54] was 598 nM. For the same molecule, the TGI [55] was 70.9 nM, the TGI [56] was 2200 nM and the TGI [57] was 319 nM. The TGI [58] was 146 nM, the TGI [59] was > 17000 nM and the TGI [60] was 526 nM. The TGI [61] was 2420 nM, the TGI [62] was 9490 nM and the TGI [63] was 592 nM. The TGI [64] was 2660 nM.
